The values below come from patent US20100168103A1, “DIARYL PIPERIDINE COMPOUNDS AS CALCIUM CHANNEL BLOCKERS” (NEUROMED PHARMACEUTICALS LTD., priority 2006, published 2010).

Each structure is given as a SMILES string. pIC50: −log10 of the molar value. Where two headings read alike, the source gives them in different places. Bounds are passed on as bounds.

This test has as its target T1, rat brain N-type calcium channel subunits (α1B+α2δ+β1b cDNA subunits) (Rattus norvegicus, UniProt Q02294).
T1 construct: expressed in transfected cells; host or cells: HEK 293
The test can be described thus: N-type calcium channel block, whole cell patch clamp in transfected HEK 293 cells. The class given is cell-based. To be noted: holding potential −80 mV to +10 mV. The protocol:
N-type calcium channel blocking activity was assayed in human embryonic kidney cells, HEK 293, stably transfected with the rat brain N-type calcium channel subunits (α1B+α2δ+β1b cDNA subunits). Alternatively, N-type calcium channels (α1B+α2δ+β1b cDNA subunits), L-type channels (α1C+α2δ+β1b cDNA subunits) and P/Q-type channels (α1A+α2δ+β1b cDNA subunits) were transiently expressed in HEK 293 cells. Briefly, cells were cultured in Dulbecco's modified eagle medium (DMEM) supplemented with 10% fetal bovine serum, 200 U/ml penicillin and 0.2 mg/ml streptomycin at 37° C. with 5% CO2. At 85% confluency cells were split with 0.25% trypsin/1 mM EDTA and plated at 10% confluency on glass coverslips. At 12 hours the medium was replaced and the cells transiently transfected using a standard calcium phosphate protocol and the appropriate calcium channel cDNA's. Fresh DMEM was supplied and the cells transferred to 28° C./5% CO2. Cells were incubated for 1 to 2 days prior to whole cell recording.
Whole cell patch clamp experiments were performed using an Axopatch 200B amplifier (Axon Instruments, Burlingame, Calif.) linked to a personal computer equipped with pCLAMP software. The external and internal recording solutions contained, respectively, 5 mM BaCl2, 10 mM MgCl2, 10 mM HEPES, 40 mM TEACl, 10 mM glucose, 87.5 mM CsCl (pH 7.2) and 108 mM CsMS, 4 mM MgCl2, 9 mM EGTA, 9 mM HEPES (pH 7.2). Currents were typically elicited from a holding potential of −80 mV to +10 mV using Clampex software (Axon Instruments). Typically, currents were first elicited with low frequency stimulation (0.067 Hz) and allowed to stabilize prior to application of the compounds. The compounds were then applied during the low frequency pulse trains for two to three minutes to assess tonic block, and subsequently the pulse frequency was increased to 0.2 Hz to assess frequency dependent block. Data were analyzed using Clampfit (Axon Instruments) and SigmaPlot 4.0 (Jandel Scientific).
(In general: In patch-clamp work, channel activity is measured electrically.)

[1] abbreviates: low frequency stimulation 0.067 Hz (tonic block), 5 mM BaCl2, read-out: IC50 @ 0.067 Hz.
Where [2] appears, read: pulse frequency 0.2 Hz (frequency dependent block), 5 mM BaCl2, read-out: IC50 @ 0.2 Hz.

T1 sequence (Q02294 whole entry): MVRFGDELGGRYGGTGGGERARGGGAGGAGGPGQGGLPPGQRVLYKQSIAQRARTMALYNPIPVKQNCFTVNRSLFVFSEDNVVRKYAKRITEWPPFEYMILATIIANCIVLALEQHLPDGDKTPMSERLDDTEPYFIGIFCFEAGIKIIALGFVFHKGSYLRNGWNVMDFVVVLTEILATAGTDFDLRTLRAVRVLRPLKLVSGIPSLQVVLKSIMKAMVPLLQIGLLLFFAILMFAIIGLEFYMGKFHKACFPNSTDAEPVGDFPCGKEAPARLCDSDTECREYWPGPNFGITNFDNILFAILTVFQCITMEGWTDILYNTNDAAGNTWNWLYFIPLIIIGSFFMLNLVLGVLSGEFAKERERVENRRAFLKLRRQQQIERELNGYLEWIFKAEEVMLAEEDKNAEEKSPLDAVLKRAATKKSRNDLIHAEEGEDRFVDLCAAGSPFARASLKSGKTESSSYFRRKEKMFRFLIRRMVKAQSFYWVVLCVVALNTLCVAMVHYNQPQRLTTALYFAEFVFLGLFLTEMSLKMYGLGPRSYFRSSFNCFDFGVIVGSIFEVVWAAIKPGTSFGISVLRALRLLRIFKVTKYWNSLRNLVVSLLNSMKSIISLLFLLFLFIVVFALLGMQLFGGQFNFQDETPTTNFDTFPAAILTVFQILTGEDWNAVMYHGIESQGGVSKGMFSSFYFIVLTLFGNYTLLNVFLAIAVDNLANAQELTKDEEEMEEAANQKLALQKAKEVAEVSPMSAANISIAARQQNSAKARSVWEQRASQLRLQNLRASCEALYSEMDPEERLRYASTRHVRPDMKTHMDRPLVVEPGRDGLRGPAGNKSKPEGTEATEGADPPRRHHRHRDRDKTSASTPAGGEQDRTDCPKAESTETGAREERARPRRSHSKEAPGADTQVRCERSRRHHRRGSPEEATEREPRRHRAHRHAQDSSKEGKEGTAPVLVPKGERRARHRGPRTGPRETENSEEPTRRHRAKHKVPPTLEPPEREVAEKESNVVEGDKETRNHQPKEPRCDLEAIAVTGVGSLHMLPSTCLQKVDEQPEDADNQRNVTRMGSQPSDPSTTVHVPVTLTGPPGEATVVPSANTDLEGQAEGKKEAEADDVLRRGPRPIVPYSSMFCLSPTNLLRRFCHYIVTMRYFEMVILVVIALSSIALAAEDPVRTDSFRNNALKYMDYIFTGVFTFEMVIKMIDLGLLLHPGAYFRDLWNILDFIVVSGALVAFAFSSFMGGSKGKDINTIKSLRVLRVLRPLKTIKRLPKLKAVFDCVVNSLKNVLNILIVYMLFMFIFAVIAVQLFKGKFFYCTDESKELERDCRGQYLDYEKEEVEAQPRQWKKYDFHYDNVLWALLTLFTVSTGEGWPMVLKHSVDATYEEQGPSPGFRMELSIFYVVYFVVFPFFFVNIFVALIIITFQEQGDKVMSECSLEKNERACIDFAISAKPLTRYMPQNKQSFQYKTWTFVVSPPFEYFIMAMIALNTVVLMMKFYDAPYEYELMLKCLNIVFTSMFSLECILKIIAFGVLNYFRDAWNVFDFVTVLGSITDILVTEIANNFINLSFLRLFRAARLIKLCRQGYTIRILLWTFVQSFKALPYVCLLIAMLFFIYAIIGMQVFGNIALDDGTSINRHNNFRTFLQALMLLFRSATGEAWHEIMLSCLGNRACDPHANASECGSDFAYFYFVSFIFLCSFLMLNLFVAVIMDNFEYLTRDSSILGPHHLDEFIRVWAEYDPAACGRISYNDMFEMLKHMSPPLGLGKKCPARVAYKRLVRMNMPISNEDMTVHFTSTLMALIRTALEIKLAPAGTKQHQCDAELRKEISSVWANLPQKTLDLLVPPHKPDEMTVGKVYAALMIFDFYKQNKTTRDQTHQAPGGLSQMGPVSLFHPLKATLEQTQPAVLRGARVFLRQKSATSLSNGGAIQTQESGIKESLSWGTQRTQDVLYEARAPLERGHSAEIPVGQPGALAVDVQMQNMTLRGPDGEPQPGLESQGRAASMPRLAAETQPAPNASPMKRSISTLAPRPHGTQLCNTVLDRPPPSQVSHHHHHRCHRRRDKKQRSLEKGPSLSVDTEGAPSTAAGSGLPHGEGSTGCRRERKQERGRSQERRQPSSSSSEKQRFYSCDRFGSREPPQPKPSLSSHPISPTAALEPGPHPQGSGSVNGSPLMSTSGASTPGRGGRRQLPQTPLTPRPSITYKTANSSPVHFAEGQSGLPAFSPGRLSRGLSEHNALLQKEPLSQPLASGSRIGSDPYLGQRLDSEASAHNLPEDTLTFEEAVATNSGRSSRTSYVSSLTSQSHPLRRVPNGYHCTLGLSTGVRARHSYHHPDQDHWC
T1 sequence (P54290 25-944 partner limits assumed): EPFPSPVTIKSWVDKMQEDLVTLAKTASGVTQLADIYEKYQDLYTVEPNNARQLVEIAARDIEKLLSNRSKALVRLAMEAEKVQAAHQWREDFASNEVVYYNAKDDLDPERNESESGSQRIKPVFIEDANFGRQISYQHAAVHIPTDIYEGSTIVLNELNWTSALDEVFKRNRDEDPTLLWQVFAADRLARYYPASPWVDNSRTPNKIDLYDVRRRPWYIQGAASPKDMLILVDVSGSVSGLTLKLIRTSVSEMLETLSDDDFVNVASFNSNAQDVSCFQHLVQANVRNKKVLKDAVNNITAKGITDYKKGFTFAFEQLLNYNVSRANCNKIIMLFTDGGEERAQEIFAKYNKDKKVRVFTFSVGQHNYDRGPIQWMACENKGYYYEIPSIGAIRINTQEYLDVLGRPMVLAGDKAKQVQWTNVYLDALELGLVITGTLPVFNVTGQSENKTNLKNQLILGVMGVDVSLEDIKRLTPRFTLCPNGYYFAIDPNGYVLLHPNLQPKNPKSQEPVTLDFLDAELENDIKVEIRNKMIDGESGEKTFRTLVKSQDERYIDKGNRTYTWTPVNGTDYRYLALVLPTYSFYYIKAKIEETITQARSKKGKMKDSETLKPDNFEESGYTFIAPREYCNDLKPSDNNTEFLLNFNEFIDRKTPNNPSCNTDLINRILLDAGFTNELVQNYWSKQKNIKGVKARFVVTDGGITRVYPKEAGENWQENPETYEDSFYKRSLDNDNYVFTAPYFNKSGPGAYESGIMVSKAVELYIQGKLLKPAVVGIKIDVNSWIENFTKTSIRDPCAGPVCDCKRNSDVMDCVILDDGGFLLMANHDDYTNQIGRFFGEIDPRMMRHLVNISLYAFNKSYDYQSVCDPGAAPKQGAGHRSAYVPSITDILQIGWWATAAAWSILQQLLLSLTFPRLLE
T1 sequence (P54290 945-1091 partner limits assumed): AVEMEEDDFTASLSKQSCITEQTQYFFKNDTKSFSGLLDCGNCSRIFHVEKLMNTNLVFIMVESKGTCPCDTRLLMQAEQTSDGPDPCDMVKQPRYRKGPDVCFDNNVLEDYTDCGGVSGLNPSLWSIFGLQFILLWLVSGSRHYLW
T1 sequence (P54283 whole entry partner): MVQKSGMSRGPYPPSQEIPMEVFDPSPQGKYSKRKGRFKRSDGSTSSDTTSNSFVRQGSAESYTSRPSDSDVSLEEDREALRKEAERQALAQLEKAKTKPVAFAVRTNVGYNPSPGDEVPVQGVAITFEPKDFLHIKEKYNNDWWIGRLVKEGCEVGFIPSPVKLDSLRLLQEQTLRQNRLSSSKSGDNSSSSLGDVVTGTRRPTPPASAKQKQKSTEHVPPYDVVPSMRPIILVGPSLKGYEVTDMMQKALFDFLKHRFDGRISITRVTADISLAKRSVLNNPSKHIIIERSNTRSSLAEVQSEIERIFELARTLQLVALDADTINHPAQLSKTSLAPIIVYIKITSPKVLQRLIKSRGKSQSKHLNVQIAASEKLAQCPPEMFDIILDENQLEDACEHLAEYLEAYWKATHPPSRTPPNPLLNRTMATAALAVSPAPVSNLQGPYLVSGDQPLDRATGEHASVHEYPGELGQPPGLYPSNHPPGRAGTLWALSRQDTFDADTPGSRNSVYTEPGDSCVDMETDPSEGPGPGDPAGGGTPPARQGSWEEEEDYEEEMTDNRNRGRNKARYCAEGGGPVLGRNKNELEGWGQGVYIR

A word on the pIC50: it is the negative decadic logarithm of the IC50, by convention in mol/L. For `CC(C)(C)N1CCN(C(=O)C2CCN(C(=O)CC(c3ccc(F)cc3)c3ccc(F)cc3)CC2)CC1` [Compound 81, 1-(4-(4-tert-butylpiperazine-1-carbonyl)piperidin-1-yl)-3,3-bis(4-fluorophenyl)propan-1-one], the pIC50 under setting [1] was 5.36 and the pIC50 under setting [2] is 5.61.
For `O=C(COC(c1ccccc1)c1ccccc1)N1CCC(C(c2ccccc2)N2CCCCC2)CC1` (stereo not drawn) [Compound 52] the same measures were 6.20 and 6.35.
For `O=C(CNC(c1ccccc1)c1ccccc1)N1CCC(CN2CCCCC2)CC1` [Compound 43, 2-(benzhydrylamino)-1-(4-(piperidin-1-ylmethyl)piperidin-1-yl)ethanone] the same measures were 5.27 and 5.28.
For `CN1CCN(C(=O)C2CCN(C(=O)NC(c3ccccc3)c3ccccc3)CC2)CC1` [Compound 13, N-benzhydryl-4-(4-methylpiperazine-1-carbonyl)piperidine-1-carboxamide] the same measures were 5.35 and 5.66.
As to `CC1CN(C(=O)C2CCN(C(=O)NC(c3ccccc3)c3ccccc3)CC2)CC(C)N1` (stereo not drawn) [Compound 25, N-benzhydryl-4-(3,5-dimethylpiperazine-1-carbonyl)piperidine-1-carboxamide], the negative-log IC50 (pIC50) under setting [1] is less than 5.19 and the pIC50 under setting [2] is 5.01.
For the compound `COc1ccccc1C(CC(=O)N1CCC(C(=O)N2CCN(C(C)(C)C)CC2)CC1)c1ccccc1OC` [Compound 87, 1-(4-(4-tert-butylpiperazine-1-carbonyl)piperidin-1-yl)-3,3-bis(2-methoxyphenyl)propan-1-one], the negative-log IC50 (pIC50) runs as follows: under setting [1], 5.16; under setting [2], 5.57.
For `Cc1ccccc1C(CC(=O)N1CCC(CN2CCN(C(C)(C)C)CC2)CC1)c1ccccc1C` [Compound 67, 1-(4-((4-tert-butylpiperazin-1-yl)methyl)piperidin-1-yl)-3,3-di-o-tolylpropan-1-one] the same measures were 6.28 and 6.60.
For `CC(C)(C)N1CCN(C(=O)C2CCN(C(=O)CC(c3ccccc3)c3ccccc3)CC2)CC1` [Compound 78, 1-(4-(4-tert-butylpiperazine-1-carbonyl)piperidin-1-yl)-3,3-diphenylpropan-1-one] the same measures were less than 5.19 and less than 5.48.
As for `O=C(C[S+]([O-])C(c1ccccc1)c1ccccc1)N1CCC(CN2CCCCC2)CC1` (stereo not drawn) [Compound 44, 2-(benzhydrylsulfinyl)-1-(4-(piperidin-1-ylmethyl)piperidin-1-yl)ethanone], the pIC50 by setting is: under setting [1], 5.08; under setting [2], 5.39.
For `CN1CCN(CC2CCN(C(=O)COC(c3ccccc3)c3ccccc3)CC2)CC1` [Compound 4, 2-(benzhydryloxy)-1-(4-((4-methylpiperazin-1-yl)methyl)piperidin-1-yl)ethanone] the same measures were less than 5.25 and less than 5.42.
Regarding `CC(C)(C)N1CCN(C(=O)C2CCN(C(=O)NC(c3ccccc3)c3ccccc3)CC2)CC1` [Compound 80, N-benzhydryl-4-(4-tert-butylpiperazin-1-carbonyl)piperidine-1-carboxamide], under setting [1], the pIC50 is 4.93.
On to `CC1CN(C(=O)C2CCN(C(=O)COC(c3ccccc3)c3ccccc3)CC2)CC(C)N1` (stereo not drawn) [Compound 21, 2-(benzhydryloxy)-1-(4-(3,5-dimethylpiperazine-1-carbonyl)piperidin-1-yl)ethanone], for which the negative-log IC50 (pIC50) was 5.79 under setting [1] and 6.00 under setting [2].
As for `Cc1ccccc1C(CC(=O)N1CCC(C(=O)N2CC(C)NC(C)C2)CC1)c1ccccc1C` (stereo not drawn) [Compound 16, 1-(4-(3,5-dimethylpiperazine-1-carbonyl)piperidin-1-yl)-3,3-di-o-tolylpropan-1-one], the pIC50 reads like this: under setting [1], 5.23; under setting [2], 5.43.
For `CN1CCN(CC2CCN(C(=O)NC(c3ccccc3)c3ccccc3)CC2)CC1` [Compound 11, N-benzhydryl-4-((4-methylpiperazine-1-yl)methyl)piperidine-1-carboxamide] the same measures were 4.55 and 5.82.
On to `CN1CCN(C(c2ccccc2)C2CCN(C(=O)CC(c3ccccc3)c3ccccc3)CC2)CC1` (stereo not drawn) [Compound 54, 1-(4-((4-methylpiperazin-1-yl)(phenyl)methyl)piperidin-1-yl)-3,3-diphenylpropan-1-one], for which the pIC50 by setting is: under setting [1], 5.63; under setting [2], 5.88.
On to `CC1CN(CC2CCN(C(=O)CC(c3ccccc3)c3ccccc3)CC2)CC(C)N1` (stereo not drawn) [Compound 23, 1-(4-((3,5-dimethylpiperazin-1-yl)methyl)piperidin-1-yl)-3,3-diphenylpropan-1-one], for which the negative-log IC50 (pIC50) is, setting by setting: under setting [1], less than 5.33; under setting [2], less than 5.41.
`O=C(NC(c1cccc(F)c1)c1cccc(F)c1)N1CCC(CN2CCCCC2)CC1` [Compound 60]: the pIC50 under setting [1] was 5.25.
As to `CC1CN(C(=O)C2(c3ccccc3)CCN(C(=O)CNC(c3ccccc3)c3ccccc3)CC2)CC(C)N1` (stereo not drawn) [Compound 28, 2-(benzhydrylamino)-1-(4-(3,5-dimethylpiperazine-1-carbonyl)-4-phenylpiperidin-1-yl)ethanone], the negative logarithm of the IC50 (pIC50) is, setting by setting: under setting [1], 5.56; under setting [2], 5.79.
As to `Cc1ccccc1C(CC(=O)N1CCC(C(c2ccccc2)N2CCN(C)CC2)CC1)c1ccccc1C` (stereo not drawn) [Compound 56, 1-(4-((4-methylpiperazin-1-yl)(phenyl)methyl)piperidin-1-yl)-3,3-di-o-tolylpropan-1-one], the negative-log IC50 (pIC50) under setting [1] is 6.57 and the negative-log IC50 (pIC50) under setting [2] was 6.82.
Take `Cc1ccccc1C(CC(=O)N1CCC(C(c2ccccc2)N2CCN(C(C)(C)C)CC2)CC1)c1ccccc1C` (stereo not drawn) [Compound 101, 1-(4-((4-tert-butylpiperazin-1-yl)(phenyl)methyl)piperidin-1-yl)-3,3-di-o-tolylpropan-1-one]: the pIC50 runs as follows: under setting [1], 5.85; under setting [2], 6.10.
For `Cc1ccccc1C(CC(=O)N1CCC(C(=O)N2CC(C)NC(C)C2)(c2ccccc2)CC1)c1ccccc1C` (stereo not drawn) [Compound 27, 1-(4-(3,5-dimethylpiperazine-1-carbonyl)-4-phenylpiperidin-1-yl)-3,3-di-o-tolylpropan-1-one] the same measures were 6.39 and 6.62.
With `CN1CCN(C(=O)C2CCN(C(=O)C[S+]([O-])C(c3ccccc3)c3ccccc3)CC2)CC1` (stereo not drawn) [Compound 9, 2-(benzhydrylsulfinyl)-1-(4-(4-methylpiperazine-1-carbonyl)piperidin-1-yl)ethanone], the pIC50 under setting [1] is 5.62 and the pIC50 under setting [2] was 5.74.
For `CN1CCN(CC2CCN(C(=O)C[S+]([O-])C(c3ccccc3)c3ccccc3)CC2)CC1` (stereo not drawn) [Compound 6, 2-(benzhydrylsulfinyl)-1-(4-((4-methylpiperazin-1-yl)methyl)piperidin-1-yl)ethanone] the same measures were 5.07 and 5.28.
Regarding `CN1CCN(C(=O)C2CCN(C(=O)COC(c3ccccc3)c3ccccc3)CC2)CC1` [Compound 8, 2-(benzhydryloxy)-1-(4-(4-methylpiperazine-1-carbonyl)piperidin-1-yl)ethanone], the negative-log IC50 (pIC50) reads like this: under setting [1], 5.29; under setting [2], 5.76.
On to `CC(C)(C)N1CCN(CC2CCN(C(=O)CC(c3ccccc3)c3ccccc3)CC2)CC1` [Compound 66, 1-(4-((4-tert-butylpiperazin-1-yl)methyl)piperidin-1-yl)-3,3-diphenylpropan-1-one], for which the negative-log IC50 (pIC50) is 5.66 under setting [1] and 5.91 under setting [2].
